One test deals with hM3Dq (Homo sapiens, UniProt P20309, A239G/Y149C). Put plainly: cell-based. Type of test: cell-based. To be noted: for Emax: read-out: hM3Dq Emax (relative to CNO); for hM3Dq potency decrease on replacing methyl with n-propyl: 4d vs 4a, 5d vs 5a.
Test [1] concerns the target hM3 (native human M3 receptor) (Homo sapiens, UniProt P20309). Put plainly: cell-based. It counts as cell-based. The settings on record: for Emax: read-out: hM3 Emax (relative to acetylcholine).
In the next test the target is T1, 5HT2C (Homo sapiens, UniProt P28335).
T1 sequence (P28335 33-458): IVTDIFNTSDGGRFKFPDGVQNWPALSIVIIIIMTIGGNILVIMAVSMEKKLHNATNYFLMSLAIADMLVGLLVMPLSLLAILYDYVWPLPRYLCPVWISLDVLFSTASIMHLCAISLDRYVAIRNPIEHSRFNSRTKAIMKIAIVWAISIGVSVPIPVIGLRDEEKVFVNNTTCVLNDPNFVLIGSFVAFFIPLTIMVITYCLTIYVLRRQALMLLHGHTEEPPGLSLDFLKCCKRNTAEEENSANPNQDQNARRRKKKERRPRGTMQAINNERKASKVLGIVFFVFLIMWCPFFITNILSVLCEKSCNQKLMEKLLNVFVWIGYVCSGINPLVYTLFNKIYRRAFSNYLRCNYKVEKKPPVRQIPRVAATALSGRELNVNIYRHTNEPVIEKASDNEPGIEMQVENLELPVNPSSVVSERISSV
Put plainly: 5HT2C radioligand binding assay. The settings on record: for Ki: Ki 5HT2C, radioligand binding.

In the next test the target is T2, α1A (Homo sapiens, UniProt P35348).
T2 sequence (P35348 1-466): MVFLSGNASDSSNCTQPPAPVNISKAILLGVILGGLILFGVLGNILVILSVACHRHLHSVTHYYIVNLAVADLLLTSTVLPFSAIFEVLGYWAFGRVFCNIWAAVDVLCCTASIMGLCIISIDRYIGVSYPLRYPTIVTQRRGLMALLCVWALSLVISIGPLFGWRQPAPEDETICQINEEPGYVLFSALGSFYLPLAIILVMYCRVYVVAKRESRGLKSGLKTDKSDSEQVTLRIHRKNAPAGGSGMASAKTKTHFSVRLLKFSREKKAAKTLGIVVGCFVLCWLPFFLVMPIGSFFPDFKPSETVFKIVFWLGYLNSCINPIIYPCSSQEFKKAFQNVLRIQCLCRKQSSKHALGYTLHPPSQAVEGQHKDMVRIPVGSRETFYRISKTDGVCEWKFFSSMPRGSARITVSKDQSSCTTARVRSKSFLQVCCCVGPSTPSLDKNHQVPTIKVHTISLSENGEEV
Put plainly: α1A radioligand binding assay. The settings on record: for Ki: Ki α1A, radioligand binding.

The target in another test is H1 (Homo sapiens, UniProt P35367). Put plainly: biochemical. Type of test: binding. The settings on record: for Ki: Ki H1, radioligand binding.
Chain of H1 (P35367 whole entry): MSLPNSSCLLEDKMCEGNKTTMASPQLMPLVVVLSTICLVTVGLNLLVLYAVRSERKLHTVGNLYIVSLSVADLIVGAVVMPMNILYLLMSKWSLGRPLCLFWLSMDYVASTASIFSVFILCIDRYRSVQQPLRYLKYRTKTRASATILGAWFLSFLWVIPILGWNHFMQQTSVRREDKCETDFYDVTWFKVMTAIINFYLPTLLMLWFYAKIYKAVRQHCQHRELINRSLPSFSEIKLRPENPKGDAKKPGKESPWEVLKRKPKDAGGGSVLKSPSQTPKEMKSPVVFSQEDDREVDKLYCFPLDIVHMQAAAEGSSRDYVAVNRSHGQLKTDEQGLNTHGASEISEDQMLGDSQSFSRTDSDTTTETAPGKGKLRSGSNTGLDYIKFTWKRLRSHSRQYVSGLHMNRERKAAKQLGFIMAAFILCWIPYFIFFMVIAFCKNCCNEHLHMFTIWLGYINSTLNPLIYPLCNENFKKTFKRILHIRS
The next test concerns the target 5HT2A (Homo sapiens, UniProt P28223). Put plainly: biochemical. Type of test: binding. To be noted: for Ki: Ki 5HT2A, radioligand binding.

“Also recorded” adds a separate entry of the source.

For orientation: EC50 means the concentration that produces a half-maximal response. Read a high EC50 as weaker potency. The Emax is the maximal effect, on the per cent scale that the assay sets. What is called Ki is a dissociation constant, usually derived from enzyme kinetics or from competition with a known ligand. Read a low Ki as tighter binding.

Chain of hM3 (native human M3 receptor) (P20309 whole entry): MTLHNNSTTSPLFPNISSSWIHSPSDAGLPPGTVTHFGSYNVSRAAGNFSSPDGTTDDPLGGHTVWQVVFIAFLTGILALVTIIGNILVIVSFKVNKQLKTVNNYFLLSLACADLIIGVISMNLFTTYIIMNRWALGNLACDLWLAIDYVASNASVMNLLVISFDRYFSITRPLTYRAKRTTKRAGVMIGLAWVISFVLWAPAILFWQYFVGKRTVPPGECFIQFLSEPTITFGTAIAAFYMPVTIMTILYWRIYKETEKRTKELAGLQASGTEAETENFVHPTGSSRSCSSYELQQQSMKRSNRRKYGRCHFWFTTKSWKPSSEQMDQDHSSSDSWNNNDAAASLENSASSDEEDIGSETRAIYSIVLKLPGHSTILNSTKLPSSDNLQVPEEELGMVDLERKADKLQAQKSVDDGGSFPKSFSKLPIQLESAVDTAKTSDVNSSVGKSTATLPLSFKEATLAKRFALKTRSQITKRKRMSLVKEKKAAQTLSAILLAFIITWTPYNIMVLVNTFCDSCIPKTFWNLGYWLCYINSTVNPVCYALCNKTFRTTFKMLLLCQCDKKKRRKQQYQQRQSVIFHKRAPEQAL
Chain of 5HT2A (P28223 whole entry, species assumed): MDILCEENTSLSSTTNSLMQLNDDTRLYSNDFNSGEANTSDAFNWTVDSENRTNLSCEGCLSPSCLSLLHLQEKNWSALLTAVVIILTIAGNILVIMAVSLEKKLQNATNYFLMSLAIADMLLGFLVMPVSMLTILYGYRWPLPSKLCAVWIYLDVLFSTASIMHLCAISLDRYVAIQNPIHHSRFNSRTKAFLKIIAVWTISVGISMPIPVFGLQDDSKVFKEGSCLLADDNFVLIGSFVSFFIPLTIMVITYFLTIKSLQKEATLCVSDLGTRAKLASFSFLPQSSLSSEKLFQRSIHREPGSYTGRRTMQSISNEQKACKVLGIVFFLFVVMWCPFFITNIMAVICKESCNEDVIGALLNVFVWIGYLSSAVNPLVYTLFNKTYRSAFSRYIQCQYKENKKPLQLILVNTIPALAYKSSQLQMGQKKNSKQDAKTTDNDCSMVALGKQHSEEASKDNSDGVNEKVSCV
Chain of hM3Dq (P20309 whole entry Y149C/A239G): as the sequence (P20309 whole entry) above, with Y149C, A239G counted along it

`CC(=O)OCC[N+](C)(C)C` [ACh, acetylcholine, reference compound]: the “agonist activity for hM3Dq (in words)” value on hM3Dq is listed as “does not activate”. Besides, the “agonist activity for hM3 (in words)” value in test [1] is reported as “potent hM3 agonist”.
With `CC(C)N1CCN(C2=Nc3cc(Cl)ccc3Nc3ccccc32)CC1` [Compound 4c, 8-Chloro-11-(4-isopropylpiperazin-1-yl)-5H-dibenzo[b,e][1,4]diazepine], the values for the EC50 (on hM3Dq; in test [1]) were 13 nM and over 30000 nM, respectively. Further, the Emax at hM3Dq is 45%. Besides, the Ki amounted to 17 nM at 5HT2C, 37 nM at α1A and 4.6 nM on H1.
Take `CCCN1CCN(C2=Nc3cc(Cl)ccc3Nc3ccccc32)CC1` [Compound 4d, 8-Chloro-11-(4-propylpiperazin-1-yl)-5H-dibenzo[b,e][1,4]diazepine]: on hM3Dq, the EC50 came out at 71 nM, the “hM3Dq potency decrease on replacing methyl with n-propyl” value is listed as “approximately 70 fold” and the Emax stood at 50%. Further, in test [1], the EC50 was over 30000 nM.
As to `CC[N+]1([O-])CCN(C2=Nc3cc(Cl)ccc3Nc3ccccc32)CC1` [Compound 5b, 4-(8-Chloro-5H-dibenzo[b,e][1,4]diazepin-11-yl)-1-ethylpiperazine N-oxide], the EC50 at hM3Dq was 19 nM; in test [1], over 30000 nM. The Emax on hM3Dq was found to be 50%. The Ki at 5HT2A was 1900 nM; at 5HT2C, 5100 nM; on α1A, over 1000 nM; at H1, 160 nM. For the same molecule, the “selectivity for hM3Dq over H1” value on H1 is “about 8 fold”.
On to `CC(C)[N+]1([O-])CCN(C2=Nc3cc(Cl)ccc3Nc3ccccc32)CC1` [Compound 5c, 4-(8-Chloro-5H-dibenzo[b,e][1,4]diazepin-11-yl)-1-isopropylpiperazine N-oxide], for which the EC50 at hM3Dq is 190 nM; in test [1], over 30000 nM. Besides, the Emax on hM3Dq amounted to 45%. The Ki on 5HT2A came to 5200 nM; at 5HT2C it was 6700 nM; at α1A, 320 nM; on H1 it was 6200 nM. Further, the “selectivity for hM3Dq over α1A” value at α1A is on record as “about 2 fold”.
In the case of `CCC[N+]1([O-])CCN(C2=Nc3cc(Cl)ccc3Nc3ccccc32)CC1` [Compound 5d, 4-(8-Chloro-5H-dibenzo[b,e][1,4]diazepin-11-yl)-1-propylpiperazine N-oxide], on hM3Dq, a half-maximal response (EC50) required 740 nM, the “hM3Dq potency decrease on replacing methyl with n-propyl” value was about 100 fold and the Emax turned out to be 79%. The same molecule registered an EC50 in test [1] of over 30000 nM.
Turning to `C[N+]1(C)CCN(C2=Nc3cc(Cl)ccc3Nc3ccccc32)CC1.[I-]` [Compound 6, 4-(8-Chloro-5H-dibenzo[b,e][1,4]diazepin-11-yl)-1,1-dimethylpiperazin-1-ium iodide], at hM3Dq, the response was half-maximal at 0.069 nM (EC50), the “fold more potent than compound 4a (clozapine) at hM3Dq” value was “about 15 fold” and the Emax is 100%. In test [1], the response was half-maximal at 9.5 nM (EC50), the “selectivity for hM3Dq over hM3” value is over 100 fold and the Emax stood at 92%.
Regarding `O=C1CN(C2=Nc3cc(Cl)ccc3Nc3ccccc32)CCN1` [Compound 7, 4-(8-Chloro-5H-dibenzo[b,e][1,4]diazepin-11-yl)piperazin-2-one], on hM3Dq, the EC50 is over 30000 nM and the “agonist activity for hM3Dq (in words)” value is reported as “did not display any agonist activity”. In test [1], the half-maximal effective concentration (EC50) was over 30000 nM and the “agonist activity for hM3 (in words)” value is recorded as “did not activate”.
In the case of `O=C1NC(=O)C2(CCN(C3=Nc4cc(Cl)ccc4Nc4ccccc43)CC2)N1` [Compound 9, 8-(8-Chloro-5H-dibenzo[b,e][1,4]diazepin-11-yl)-1,3,8-triazaspiro[4.5]decane-2,4-dione], on hM3Dq, the EC50 was over 30000 nM and the “agonist activity for hM3Dq (in words)” value is given as “did not activate”. Besides, in test [1], the half-maximal effective concentration (EC50) was over 30000 nM and the “agonist activity for hM3 (in words)” value is listed as “did not activate”.
For `NC1(C(=O)O)CCN(C2=Nc3cc(Cl)ccc3Nc3ccccc32)CC1` [Compound 10, 4-Amino-1-(8-chloro-5H-dibenzo[b,e][1,4]diazepin-11-yl)piperidine-4-carboxylic acid], on hM3Dq, the EC50 is over 30000 nM and the “agonist activity for hM3Dq (in words)” value is “did not activate”. In test [1], the EC50 is over 30000 nM and the “agonist activity for hM3 (in words)” value is “did not activate”.
Regarding `CC(=O)N1CCN(C2=Nc3cc(Cl)ccc3Nc3ccccc32)CC1` [Compound 12, 1-(4-(8-Chloro-5H-dibenzo[b,e][1,4]diazepin-11-yl)piperazin-1-yl)ethanone], at hM3Dq, the EC50 was over 30000 nM and the “agonist activity for hM3Dq (in words)” value was “did not display any agonist activity”. Moreover, in test [1], the EC50 is over 30000 nM and the “agonist activity for hM3 (in words)” value was “did not activate”.
As to `CS(=O)(=O)N1CCN(C2=Nc3cc(Cl)ccc3Nc3ccccc32)CC1` [Compound 14, 8-Chloro-11-(4-(methylsulfonyl)piperazin-1-yl)-5H-dibenzo[b,e][1,4]diazepine], at hM3Dq, the EC50 is over 30000 nM and the “agonist activity for hM3Dq (in words)” value is listed as “did not display any agonist activity”. In test [1], the EC50 was over 30000 nM and the “agonist activity for hM3 (in words)” value is “did not activate”.
As for `c1ccc2c(c1)N=C(N1CCNCC1)c1ccccc1N2` [Compound 21, 11-(Piperazin-1-yl)-5H-dibenzo[b,e][1,4]diazepine], at hM3Dq, the EC50 is 1.7 nM and the Emax was determined as 100%. Also, in test [1], the “agonist activity for hM3 (in words)” value is “do not activate; also recorded: inactive” and the Emax is about 20%. Also, at 5HT2A, the “selectivity for hM3Dq over 5HT2A” value was 40 fold and the inhibitory constant (Ki) was found to be 66 nM. Moreover, on 5HT2C, the “selectivity for hM3Dq over 5HT2C” value amounted to 100 fold and the affinity corresponds to a Ki of 170 nM. At α1A, the “selectivity for hM3Dq over α1A” value worked out at 165 fold and the Ki came to 280 nM. At H1, the “selectivity for hM3Dq over H1” value is on record as 3.5 fold and the Ki worked out at 6 nM.
As for `CCN1CCN(C2=Nc3ccccc3Nc3ccccc32)CC1` [Compound 22, 11-(4-Ethylpiperazin-1-yl)-5H-dibenzo[b,e][1,4]diazepine], at hM3Dq, the Emax worked out at 81%. For the same molecule, in test [1], the “agonist activity for hM3 (in words)” value is on record as “did not exhibit any agonist activity”.
Take `CC[N+]1([O-])CCN(C2=Nc3ccccc3Nc3ccccc32)CC1` [Compound 23, 4-(5H-Dibenzo[b,e][1,4]diazepin-11-yl)-1-ethylpiperazine N-oxide]: at hM3Dq, a half-maximal effect (EC50) was put at 220 nM, the “fold less potent for hM3Dq than compound 5b” value is “about 10 fold” and the Emax was found to be 59%. Further, in test [1], the EC50 is over 30000 nM and the “agonist activity for hM3 (in words)” value is “did not exhibit any agonist activity”.
Consider `CN1CCN(C2=Nc3ccccc3Cc3ccccc32)CC1` [perlapine, reference compound], for which the “selectivity for hM3Dq over hM3” value in test [1] was > 10 000 fold.

For the origin of these results see paper PMC4368042 (ACS Chemical Neuroscience, 2015).
